Where two headings read alike, the source gives them in different places.
Columns and labels:
Format in all cases: cell-based
P. aeruginosa 27853 = assay: MIC broth microdilution, standard panel: P. aeruginosa 27853; conditions: Pseudomonas aeruginosa, standard panel of organisms
Protocol: (§1) Bacterial isolates were cultivated from −70° C. frozen stocks by two consecutive overnight passages at 35° C. in ambient air on 5% blood agar (Remel, Lenexa, Kans.). Clinical isolates tested were from a collection composed of isolates collected during clinical trials and recent clinical isolates obtained from various geographically diverse hospitals in the US. Quality control and primary panel strains were from the American Type Culture Collection (ATCC; Rockville, Md.), with the exception of P. aeruginosa PAO200, a strain with a deletion of the mexABoprM genes that was received from Dr. H. Schweizer. […] Strain Z61 (ATCC 35151) is also hypersusceptible to antibacterials. It is thought that the hypersusceptibility of this strain is the result of increased permeability of its outer membrane (Angus B L et al, Antimicrobial Agents and Chemotherapy 1982 21,299-309: Outer membrane permeability in Pseudomonas aeruginosa: Comparison of a wild-type with an antibacterial-supersusceptible mutant).
(§2) Minimum Inhibitory Concentrations (MICs) were determined by the broth microdilution method in accordance with the National Committee for Clinical Laboratory Standards (NCCLS) guidelines. In brief, organism suspensions were are adjusted to a 0.5 McFarland standard to yield a final inoculum between 3×10^5 and 7×10^5 colony-forming units (CFU)/mL. Drug dilutions and inocula were made in sterile, cation adjusted Mueller-Hinton Broth (Remel). An inoculum volume of 100 μl was added to wells containing 100 μl of broth with 2-fold serial dilutions of drug. All inoculated microdilution trays were incubated in ambient air at 35° C. for 18-24 hours. Following incubation, the lowest concentration of the drug that prevented visible growth was recorded as the MIC. Performance of the assay was monitored by the use of laboratory quality-control strains against tobramycin, that has a defined MIC spectrum, in accordance with NCCLS guidelines.

E. coli 25922 = assay: MIC broth microdilution, standard panel: E. coli 25922; conditions: Escherichia coli, standard panel of organisms
Protocol: as §1, §2

S. aureus 29213 = assay: MIC broth microdilution, standard panel: S. aureus 29213; conditions: Staphylococcus aureus, standard panel of organisms
Protocol: as §1, §2

[1] = tested on: P. aeruginosa PAO200 mexAB; assay: MIC broth microdilution, standard panel: P. aeruginosa PAO200 mexAB; conditions: Pseudomonas aeruginosa, PAO200MEXAB, read-out: MIC P. aeruginosa PAO200 mexAB
Protocol: as §1, §2

[2] = tested on: Pseudomonas aeruginosa cystic fibrosis isolate 3198; assay: MIC vs cystic fibrosis isolate of P. aeruginosa 3198 (sensitive to most antibacterials); conditions: strain 3198, Sensitive
Protocol: (§3) Bacterial isolates were cultivated from −70° C. frozen stocks by two consecutive overnight passages at 35° C. in ambient air on 5% blood agar (Remel, Lenexa, Kans.). Clinical isolates tested were from a collection composed of isolates collected during clinical trials and recent clinical isolates obtained from various geographically diverse hospitals in the US. Quality control and primary panel strains were from the American Type Culture Collection (ATCC; Rockville, Md.), with the exception of P. aeruginosa PAO200, a strain with a deletion of the mexABoprM genes that was received from Dr. H. Schweizer.
as §2, with “MIC.” for “MIC. Performance of the assay was monitored by the use of laboratory quality-control strains against tobramycin, that has a defined MIC spectrum, in accordance with NCCLS guidelines.”

[3] = tested on: Pseudomonas aeruginosa cystic fibrosis isolate 3236; assay: MIC vs cystic fibrosis isolate of P. aeruginosa 3236 (sensitive to most antibacterials); conditions: strain 3236, Sensitive
Protocol: as §3
as §2, with “MIC.” for “MIC. Performance of the assay was monitored by the use of laboratory quality-control strains against tobramycin, that has a defined MIC spectrum, in accordance with NCCLS guidelines.”

[4] = tested on: Pseudomonas aeruginosa cystic fibrosis isolate 2196; assay: MIC vs cystic fibrosis isolate of P. aeruginosa 2196 (resistant to ciprofloxacin); conditions: strain 2196, Cipro R
Protocol: as §3
as §2, with “MIC.” for “MIC. Performance of the assay was monitored by the use of laboratory quality-control strains against tobramycin, that has a defined MIC spectrum, in accordance with NCCLS guidelines.”

[5] = tested on: Pseudomonas aeruginosa cystic fibrosis isolate 3224; assay: MIC vs cystic fibrosis isolate of P. aeruginosa 3224; conditions: strain 3224, Tobra R
Protocol: as §3
as §2, with “MIC.” for “MIC. Performance of the assay was monitored by the use of laboratory quality-control strains against tobramycin, that has a defined MIC spectrum, in accordance with NCCLS guidelines.”

[6] = tested on: Pseudomonas aeruginosa cystic fibrosis isolate 3317; assay: MIC vs cystic fibrosis isolate of P. aeruginosa 3317 (resistant to aztreonam); conditions: strain 3317, Aztr. R
Protocol: as §3
as §2, with “MIC.” for “MIC. Performance of the assay was monitored by the use of laboratory quality-control strains against tobramycin, that has a defined MIC spectrum, in accordance with NCCLS guidelines.”

[7] = tested on: Pseudomonas aeruginosa cystic fibrosis isolate 1145; assay: microbe, parasite or virus in culture; conditions: strain 1145, MDR, read-out: MIC
Protocol: as §3
as §2, with “MIC.” for “MIC. Performance of the assay was monitored by the use of laboratory quality-control strains against tobramycin, that has a defined MIC spectrum, in accordance with NCCLS guidelines.”

[8] = tested on: Pseudomonas aeruginosa cystic fibrosis isolate 3206; assay: microbe, parasite or virus in culture; conditions: strain 3206, MDR, LpxC inhibitors, MIC key class, read-out: MIC
Protocol: as §3
as §2, with “MIC.” for “MIC. Performance of the assay was monitored by the use of laboratory quality-control strains against tobramycin, that has a defined MIC spectrum, in accordance with NCCLS guidelines.”

[9] = tested on: non-CF clinical isolates of P. aeruginosa; assay: MIC vs non-CF clinical isolates of P. aeruginosa; conditions: Pseudomonas aeruginosa
Protocol: as §1, §2

[10] = tested on: Acinetobacter calcoaceticus; assay: MIC vs non-fermenting organisms: Acinetobacter calcoaceticus; conditions: Acinet. calc.
Protocol: as §3
as §2, with “MIC.” for “MIC. Performance of the assay was monitored by the use of laboratory quality-control strains against tobramycin, that has a defined MIC spectrum, in accordance with NCCLS guidelines.”

Alcaligenes xylosoxidans = assay: MIC vs non-fermenting organisms: Alcaligenes xylosoxidans; conditions: Achromobacter xylosoxidans, Alcal. xyl
Protocol: as §3
as §2, with “MIC.” for “MIC. Performance of the assay was monitored by the use of laboratory quality-control strains against tobramycin, that has a defined MIC spectrum, in accordance with NCCLS guidelines.”

Burkholderia cepacia = assay: MIC vs non-fermenting organisms: Burkholderia cepacia; conditions: B. cepacia
Protocol: as §3
as §2, with “MIC.” for “MIC. Performance of the assay was monitored by the use of laboratory quality-control strains against tobramycin, that has a defined MIC spectrum, in accordance with NCCLS guidelines.”

[11] = tested on: Stenotrophomonas maltophilia; assay: MIC vs non-fermenting organisms: Stenotrophomonas maltophilia; conditions: Stenotrophomonas maltophilia, S. malt., read-out: MIC
Protocol: as §3
as §2, with “MIC.” for “MIC. Performance of the assay was monitored by the use of laboratory quality-control strains against tobramycin, that has a defined MIC spectrum, in accordance with NCCLS guidelines.”

Enterobacter aerogenes = assay: MIC vs enteric organisms: Enterobacter aerogenes; conditions: Klebsiella aerogenes, E. aer.
Protocol: as §3
as §2, with “MIC.” for “MIC. Performance of the assay was monitored by the use of laboratory quality-control strains against tobramycin, that has a defined MIC spectrum, in accordance with NCCLS guidelines.”

Enterobacter cloacae = assay: MIC vs enteric organisms: Enterobacter cloacae; conditions: E. clo.
Protocol: as §3
as §2, with “MIC.” for “MIC. Performance of the assay was monitored by the use of laboratory quality-control strains against tobramycin, that has a defined MIC spectrum, in accordance with NCCLS guidelines.”

Escherichia coli = assay: MIC vs enteric organisms: Escherichia coli clinical isolates
Protocol: as §3
as §2, with “MIC.” for “MIC. Performance of the assay was monitored by the use of laboratory quality-control strains against tobramycin, that has a defined MIC spectrum, in accordance with NCCLS guidelines.”

Klebsiella pneumoniae = assay: MIC vs enteric organisms: Klebsiella pneumoniae; conditions: K. pneu.
Protocol: as §3
as §2, with “MIC.” for “MIC. Performance of the assay was monitored by the use of laboratory quality-control strains against tobramycin, that has a defined MIC spectrum, in accordance with NCCLS guidelines.”

Klebsiella oxytoca = assay: MIC vs enteric organisms: Klebsiella oxytoca; conditions: K. oxy.
Protocol: as §3
as §2, with “MIC.” for “MIC. Performance of the assay was monitored by the use of laboratory quality-control strains against tobramycin, that has a defined MIC spectrum, in accordance with NCCLS guidelines.”

Proteus mirabilis = assay: MIC vs enteric organisms: Proteus mirabilis; conditions: P. mir.
Protocol: as §3
as §2, with “MIC.” for “MIC. Performance of the assay was monitored by the use of laboratory quality-control strains against tobramycin, that has a defined MIC spectrum, in accordance with NCCLS guidelines.”

Serratia marcescens = assay: MIC vs enteric organisms: Serratia marcescens; conditions: S. marc.
Protocol: as §3
as §2, with “MIC.” for “MIC. Performance of the assay was monitored by the use of laboratory quality-control strains against tobramycin, that has a defined MIC spectrum, in accordance with NCCLS guidelines.”

[12] = tested on: Pseudomonas aeruginosa cystic fibrosis isolate 3232; assay: MIC vs cystic fibrosis isolate of P. aeruginosa 3232 (Ceftaz. R); conditions: strain 3232, Ceftaz. R
[13] = P. aer 12307, comparator antibacterials
[14] = P. aer psa-6b, comparator antibacterials
[15] = Burkholderia cepacia, comparator antibacterials, read-out: MIC

Measured: MIC

NC[C@H](NC(=O)c1ccc(C#Cc2ccccc2)cc1)C(=O)NO [Example 366, N-[(1S)-1-(aminomethyl)-2-(hydroxyamino)-2-oxoethyl]-4-(phenylethynyl)benzamide]
6.25 to 50 µg/mL: [9]; P. aer psa-6b, MIC key class | Burkholderia cepacia; Burkholderia cepacia, MIC key class, read-out: MIC | [11]; MIC key class | Klebsiella pneumoniae; MIC key class | Klebsiella oxytoca; MIC key class
> 50 µg/mL: S. aureus 29213 | [10]; MIC key class | Enterobacter aerogenes; MIC key class
< 6.25 µg/mL: P. aeruginosa 27853 | E. coli 25922 | [1] | [2]; LpxC inhibitors, MIC key class | [3]; LpxC inhibitors, MIC key class | [4]; LpxC inhibitors, MIC key class | [5]; LpxC inhibitors, MIC key class | [6]; LpxC inhibitors, MIC key class | [7]; LpxC inhibitors, MIC key class | [8] | [9]; P. aer 12307, MIC key class | [9]; P. aer 27853, MIC key class | [9]; PAO1, P. aer. PAO1, MIC key class | Alcaligenes xylosoxidans; MIC key class | Enterobacter cloacae; MIC key class | Escherichia coli; Escherichia coli, E. coli 1619, MIC key class, read-out: MIC | Escherichia coli; Escherichia coli, E. coli 2788, MIC key class, read-out: MIC | Proteus mirabilis; MIC key class | Serratia marcescens; MIC key class | [12]; LpxC inhibitors, MIC key class

C[C@@H](O)[C@H]1C(=O)N2C(C(=O)O)=C(S[C@@H]3CN[C@H](C(=O)N(C)C)C3)[C@H](C)[C@H]12 [Meropenem, meropenem, reference compound]
4 µg/mL: [10]; comparator antibacterials | Burkholderia cepacia; [15]
64 µg/mL: [11]; comparator antibacterials
0.25 µg/mL: [9]; [14] | Escherichia coli; Escherichia coli, E. coli 1619, comparator antibacterials, read-out: MIC
0.13 µg/mL: Escherichia coli; E. coli 1619, comparator antibacterials | Klebsiella pneumoniae; comparator antibacterials | Serratia marcescens; comparator antibacterials
0.5 µg/mL: [9]; [13] | Alcaligenes xylosoxidans; comparator antibacterials | Proteus mirabilis; comparator antibacterials
≤ 0.06 µg/mL: Enterobacter cloacae; comparator antibacterials | Escherichia coli; Escherichia coli, E. coli 2788, comparator antibacterials, read-out: MIC | Klebsiella oxytoca; comparator antibacterials
2 µg/mL: Enterobacter aerogenes; comparator antibacterials

NC[C@H]1O[C@H](O[C@H]2[C@H](O)[C@@H](O[C@H]3O[C@H](CO)[C@@H](O)[C@H](N)[C@H]3O)[C@H](N)C[C@@H]2N)[C@H](N)C[C@@H]1O [Tobramycin, tobramycin, reference compound]
0.5 µg/mL: [3]; comparator antibacterials | [11]; comparator antibacterials
8 µg/mL: [9]; [13]
2 µg/mL: [2]; comparator antibacterials | [4]; comparator antibacterials | [6]; comparator antibacterials | [9]; [14] | [10]; comparator antibacterials | Proteus mirabilis; comparator antibacterials | Serratia marcescens; comparator antibacterials
> 128 µg/mL: Burkholderia cepacia; comparator antibacterials
8 to 32 µg/mL: [7]; comparator antibacterials
1 µg/mL: Klebsiella oxytoca; comparator antibacterials | [12]; comparator antibacterials
0.06 µg/mL: Enterobacter cloacae; comparator antibacterials
64 µg/mL: [5]; comparator antibacterials | Alcaligenes xylosoxidans; comparator antibacterials | Burkholderia cepacia; [15] | Enterobacter aerogenes; comparator antibacterials | Klebsiella pneumoniae; comparator antibacterials

— patent US7358359B2, “Antibacterial agents” (University of Washington, priority 2003, dated 2008)
